According to paper PMC2981508 (Science (New York, N.Y.), 2009):

Key:
[1] = test system: AR target genes PSA and TMPRSS2 in LNCaP/AR cells; assay: qRT-PCR of AR-dependent genes in LNCaP/AR cells; type: cell-based, human; settings: androgen-depleted media 5% CSS, 8 hours, 1 and 10 μM
[2] = test system: PSA and TMPRSS2 in parental LNCaP cells; assay: Antagonism of R1881 induction of PSA and TMPRSS2 in parental LNCaP cells; type: cell-based, human
VCaP cells [3] = assay: VCaP cell proliferation; type: cell-based, human; settings: 1 and 10 μM, media containing FBS
VCaP cells [4] = assay: VCaP apoptosis; type: cell-based, human; settings: 10 μM, 1 or 3 days, PARP cleavage
[5] = test system: DU145 human prostate cancer cells; assay: Growth of AR-negative DU145 cells in vitro; type: cell-based
[6] = test system: AR recruitment to PSA enhancer and TMPRSS2 enhancer in LNCaP/AR cells; assay: Chromatin immunoprecipitation of AR in LNCaP/AR cells; type: cell-based, human
[7] = test system: AR recruitment to PSA enhancer and TMPRSS2 enhancer in parental LNCaP cells; assay: Chromatin immunoprecipitation of AR in parental LNCaP cells; type: cell-based, human
serum PSA = assay: Phase I/II clinical trial in men with CRPC; type: in vivo, human
LNCaP/AR tumors = assay: LNCaP/AR xenograft model of CRPC in castrate male mice
VP16-AR fusion protein = type: cell-based; settings: Cos-7 cells, 24 hours
AR = settings: cited from earlier work
[8] = test system: DU145 prostate cancer xenografts; assay: AR-negative DU145 prostate cancer xenografts; parameters: species or system mice; settings: mouse, in vivo
[9] = Plasma levels in LNCaP/AR tumor-bearing mice; settings: 10 mg/kg oral daily, 20 hours after the final dose on day 28

SMILES: CNC(=O)c1ccc(N2C(=S)N(c3ccc(C#N)c(C(F)(F)F)c3)C(=O)C2(C)C)cc1F [MDV3100]
- Expression of AR target genes PSA and TMPRSS2 (agonist activity) [1]: do not have agonist activity
- Antagonism of induction of PSA and TMPRSS2 by R1881 [2]: antagonized induction
- Growth of VCaP cells (VCaP cells [3]): suppressed growth
- Apoptosis in VCaP cells (VCaP cells [4]): induced apoptosis
- Growth suppression in AR-negative DU145 cells [5]: not observed
- AR recruitment to PSA enhancer and TMPRSS2 enhancer [6]: Neither RD162 nor MDV3100 recruited AR
- AR recruitment to PSA enhancer and TMPRSS2 enhancer [7]: Neither RD162 nor MDV3100 recruited AR
- Patients with sustained decline in serum PSA levels for at least 12 weeks (of 30) (serum PSA; 30 mg or 60 mg daily oral): Twenty-two
- Tolerability (serum PSA; 30 mg or 60 mg daily oral): well tolerated
- patients remaining on study longer than 25 weeks (of 30) (serum PSA; 30 mg or 60 mg daily oral): 11 patients
- Percent of patients with sustained declines (by >50 percent) in serum PSA (serum PSA; first 30 patients): 43%
- Tumor responses (LNCaP/AR tumors; MDV3100 treatment (fig. S5)): Tumor responses were also observed

SMILES: C[C@]1(O)CC[C@H]2[C@@H]3CCC4=CC(=O)CCC4=C3C=C[C@@]21C [R1881, reference compound]
- AR recruitment to PSA enhancer and TMPRSS2 enhancer [6]: promoted AR recruitment
- AR recruitment to PSA enhancer and TMPRSS2 enhancer [7]: only R1881 promoted recruitment
- Activation of VP16-AR (VP16-AR fusion protein): activated VP16-AR

SMILES: CC1(C)C(=O)N(c2ccc(C#N)c(C(F)(F)F)c2)C(=S)N1CCCCO [RU59063]
- affinity for AR, fold reduced compared to testosterone (AR): 3 fold

SMILES: CC(O)(CS(=O)(=O)c1ccc(F)cc1)C(=O)Nc1ccc(C#N)c(C(F)(F)F)c1 (stereo not drawn) [bicalutamide, reference compound]
- Expression of AR target genes PSA and TMPRSS2 (agonist activity) [1]: induced
- growth of AR-negative DU145 xenografts [8]: neither bicalutamide nor RD162 impaired the growth
- AR recruitment to PSA enhancer and TMPRSS2 enhancer [6]: promoted AR recruitment
- AR recruitment to PSA enhancer and TMPRSS2 enhancer [7]: only R1881 promoted recruitment
- Plasma levels (mean) [9]: 40 µM
- Plasma levels in all mice [9]: exceeded 25 μM
- Tumors progressed on treatment (of 12) (LNCaP/AR tumors; 10 mg/kg oral daily, 28 days): seven tumors
- Tumors regressed (12 tumors per group) (LNCaP/AR tumors; 10 mg/kg oral daily, 28 days): one tumor regressed by 50%
- Tumors with stable disease (of 12) (LNCaP/AR tumors; 10 mg/kg oral daily, 28 days): four tumors
- increase in tumor volume of progressing tumors (LNCaP/AR tumors; 10 mg/kg oral daily, 28 days): up to 5 fold
- Median time to tumor progression (LNCaP/AR tumors; continual 10 mg/kg oral daily treatment): 35 days
